According to ChEMBL document CHEMBL5316263, “Structure-Based Discovery of Selective Histone Deacetylase 8 Degraders with Potent Anticancer Activity” (J Med Chem, 2023):
Calls of active or inactive are those of the source. No cut-off for these calls is given here.

Assays:
[1] = Toxicity in NOD/SCID mouse xenografted with human A549 cells assessed as change in body weight loss at 5 mg/kg, ip administered every 5 days measured at day 30; type: organism-based; conditions: in vivo, 720 h, time 30 day
[2] = tested on: A549; assay: Induction of apoptosis in human A549 cells assessed as early apoptotic cells at 10 uM incubated for 72 hrs by annexin V-FITC staining based flow cytometry (reference value: 0.099%); type: functional
[3] = tested on: A549; assay: Effect on CYP1B1 gene in human A549 cells at 10 uM measured after 20 hrs by RNA sequencing analysis; type: functional, cell-based
[4] = tested on: A549; assay: Induction of apoptosis in human A549 cells assessed as late apoptotic cells at 20 uM incubated for 72 hrs by annexin V-FITC staining based flow cytometry (reference value: 0.048%); type: functional
[5] = tested on: A549; assay: Antitumor activity against human A549 cells xenografted in NOD/SCID mouse assessed as increase in gamma-H2AX expression at 5 mg/kg, ip administered every 5 days measured at day 30 under irradiation condition by […] analysis; type: functional, organism-based; conditions: time 30.0 day
[6] = tested on: A549; assay: Induction of apoptosis in human A549 cells assessed as late apoptotic cells at 5 uM incubated with compound followed by irradiation by annexin V-FITC staining based flow cytometry (reference value: 3.07%); type: functional
[7] = molecular target: T1, Protein cereblon/Histone deacetylase 8 (Homo sapiens) (UniProt Q9BY41+Q96SW2); assay: In vivo protac activity at CRBN/HDAC8 in human A549 cells xenografted in NOD/SCID mouse assessed as degradation of HDAC8 at 5 mg/kg, ip administered every 5 days measured at day 30 by Western blot analysis; type: functional, organism-based; conditions: time 30.0 day
[8] = tested on: A549; assay: Antitumor activity against human A549 cells xenografted in NOD/SCID mouse assessed as decrease in HDAC8 expression at 5 mg/kg, ip administered every 5 days measured at day 30 under irradiation condition by […] analysis; type: functional, organism-based; conditions: time 30.0 day
[9] = tested on: A549; assay: Induction of apoptosis in human A549 cells assessed as necrotic cells at 2.5 uM incubated for 72 hrs by annexin V-FITC staining based flow cytometry relative to control; type: functional
[10] = tested on: A549; assay: Effect on TIPARP gene in human A549 cells at 10 uM measured after 20 hrs by RNA sequencing analysis; type: functional, cell-based
[11] = tested on: A549; assay: Induction of apoptosis in human A549 cells assessed as late apoptotic cells at 5 uM by annexin V-FITC staining based flow cytometry (reference value: 0.00%); type: functional
[12] = tested on: A549; assay: Induction of apoptosis in human A549 cells assessed as viable cells at 10 uM incubated for 72 hrs by annexin V-FITC staining based flow cytometry (reference value: 99.9%); type: functional; conditions: read-out: Activity
[13] = tested on: A549; assay: Induction of apoptosis in human A549 cells assessed as upregulation of cleaved caspase-3 level measured after 48 hrs by Western blot analysis; type: functional, cell-based; conditions: dose 1.25-20 µM
[14] = molecular target: Protein cereblon/Protein deacetylase HDAC6 (Homo sapiens) (UniProt Q9UBN7+Q96SW2); assay: Protac activity at CRBN/HDAC6 in human A549 cells assessed as reduction in HDAC6 protein level at 0.1 to 10 uM by Western blot analysis; type: cell-based; conditions: dose 0.1-10 µM
[15] = molecular target: T1, Protein cereblon/Histone deacetylase 8 (Homo sapiens); assay: Protac activity at CRBN/HDAC8 in human A549 cells assessed as degradation of HDAC8 at 200 nM measured after 20 hrs by Western blot analysis relative to control; type: cell-based
[16] = tested on: A549; assay: Induction of apoptosis in human A549 cells assessed as necrotic cells at 5 uM incubated for 48 hrs by annexin V FITC and propidium iodide based flow cytometry relative to control; type: functional
[17] = tested on: A549; assay: Antitumor activity against human A549 cells xenografted in NOD/SCID mouse at 5 mg/kg, ip administered every 5 days measured at day 30 followed by irradiation; type: functional, organism-based; conditions: time 30.0 day
[18] = tested on: A549; assay: Antitumor activity against human A549 cells xenografted in NOD/SCID mouse assessed as increase in number of necrotic cells at 5 mg/kg, ip administered every 5 days measured at day 30 under irradiation condition by H and E staining based analysis; type: functional, organism-based; conditions: time 30.0 day
[19] = tested on: A549; assay: Effect on ARPIN gene in human A549 cells at 10 uM measured after 20 hrs by RNA sequencing analysis; type: functional, cell-based
[20] = tested on: A549; assay: Downregulation of ABHD6 in human A549 cells measured after 20 hrs by proteomic analysis; type: functional, cell-based
[21] = tested on: A549; assay: Inhibition of DNA damage repair in human A549 cells assessed as reduction in Ku70 protein level at 5 uM incubated for 24 hrs by immunofluorescence staining based analysis; type: functional, cell-based
[22] = tested on: A549; assay: Induction of apoptosis in human A549 cells assessed as necrotic cells at 1.25 uM incubated for 72 hrs by annexin V-FITC staining based flow cytometry relative to control; type: functional
[23] = molecular target: T1, Protein cereblon/Histone deacetylase 8 (Homo sapiens); assay: Protac activity at CRBN/HDAC8 in human A549 cells assessed as maximum degradation at 10 uM incubated for 20 hrs by ELISA method relative to control; type: cell-based
[24] = tested on: A549; assay: Induction of apoptosis in human A549 cells assessed as viable cells at 20 uM incubated for 72 hrs by annexin V-FITC staining based flow cytometry (reference value: 99.9%); type: functional; conditions: read-out: Activity
[25] = tested on: A549; assay: Induction of apoptosis in human A549 cells assessed as viable cells at 5 uM incubated with compound followed by irradiation by annexin V-FITC staining based flow cytometry (reference value: 89.7%); type: functional; conditions: A549, light or radiation study, read-out: Activity
[26] = tested on: A549; assay: Induction of apoptosis in human A549 cells assessed as early apoptotic cells at 5 uM incubated for 72 hrs by annexin V-FITC staining based flow cytometry (reference value: 0.099%); type: functional
[27] = tested on: A549; assay: Effect on DKK1 gene in human A549 cells at 10 uM measured after 20 hrs by RNA sequencing analysis; type: functional, cell-based
[28] = tested on: A549; assay: Induction of apoptosis in human A549 cells assessed as late apoptotic cells at 2.5 uM incubated for 72 hrs by annexin V-FITC staining based flow cytometry (reference value: 0.048%); type: functional
[29] = tested on: A549; assay: Synergistic antiproliferative activity against human A549 cells assessed as combination index measured after 72 hrs under irradiation by CCK-8 method; type: functional
[30] = tested on: HCT-116; assay: Inhibition of colony formation in SiRNA mediated HDAC8 knockdown human HCT-116 cells assessed as decrease in cell proliferation at 2.5 to 10 uM measured after 7 to 10 days with media replenishment along with compound for every 3 days by crystal violet staining based analysis; type: functional; conditions: dose 2.5-10 µM, time 7-10 day
[31] = molecular target: T1, Protein cereblon/Histone deacetylase 8 (Homo sapiens); assay: Protac activity at CRBN/HDAC8 in human A549 cells assessed as reduction in HDAC8 protein levels at 10 uM measured after 18 hrs by Western blot analysis relative to control; type: cell-based; set-up: scale not given: the % may be the effect or the level left
[32] = tested on: A549; assay: Induction of apoptosis in human A549 cells assessed as necrotic cells at 5 uM incubated for 72 hrs by annexin V-FITC staining based flow cytometry relative to control; type: functional
[33] = tested on: A549; assay: Downregulation of LAMTOR4 in human A549 cells measured after 20 hrs by proteomic analysis; type: functional, cell-based
[34] = molecular target: T1, Protein cereblon/Histone deacetylase 8 (Homo sapiens); assay: In vivo protac activity at CRBN/HDAC8 in human A549 cells xenografted in NOD/SCID mouse assessed as degradation of HDAC8 at 5 mg/kg, ip administered every 5 days measured at day 30 under irradiation condition by Western blot analysis; type: functional, organism-based; conditions: time 30.0 day

T1 sequence (Q96SW2 whole entry, looked up): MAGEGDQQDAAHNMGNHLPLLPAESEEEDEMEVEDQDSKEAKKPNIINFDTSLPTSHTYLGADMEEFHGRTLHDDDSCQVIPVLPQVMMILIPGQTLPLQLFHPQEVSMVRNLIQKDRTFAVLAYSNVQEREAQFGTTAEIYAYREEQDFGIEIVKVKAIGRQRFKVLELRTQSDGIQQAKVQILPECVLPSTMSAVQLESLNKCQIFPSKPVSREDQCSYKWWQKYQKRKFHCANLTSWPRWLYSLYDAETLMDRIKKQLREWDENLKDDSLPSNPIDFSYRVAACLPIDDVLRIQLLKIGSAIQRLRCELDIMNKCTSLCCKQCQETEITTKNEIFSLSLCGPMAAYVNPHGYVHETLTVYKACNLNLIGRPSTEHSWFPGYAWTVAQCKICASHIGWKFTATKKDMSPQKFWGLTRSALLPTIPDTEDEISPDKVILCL
T1 sequence (Q9BY41 whole entry, looked up): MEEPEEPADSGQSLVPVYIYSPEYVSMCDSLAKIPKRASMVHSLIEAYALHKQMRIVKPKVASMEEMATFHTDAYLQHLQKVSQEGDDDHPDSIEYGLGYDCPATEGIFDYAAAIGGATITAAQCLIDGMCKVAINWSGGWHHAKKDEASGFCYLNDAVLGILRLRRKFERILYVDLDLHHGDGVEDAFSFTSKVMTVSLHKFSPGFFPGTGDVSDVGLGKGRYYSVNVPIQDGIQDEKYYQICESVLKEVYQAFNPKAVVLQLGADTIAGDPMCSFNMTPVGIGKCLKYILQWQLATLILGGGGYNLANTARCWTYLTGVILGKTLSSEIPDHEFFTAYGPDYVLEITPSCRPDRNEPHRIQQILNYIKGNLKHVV
Protein cereblon/Protein deacetylase HDAC6 (Homo sapiens), sequence (Q96SW2 whole entry, looked up): as the sequence (Q96SW2 whole entry, looked up) above
Protein cereblon/Protein deacetylase HDAC6 (Homo sapiens), sequence (Q9UBN7 whole entry, looked up): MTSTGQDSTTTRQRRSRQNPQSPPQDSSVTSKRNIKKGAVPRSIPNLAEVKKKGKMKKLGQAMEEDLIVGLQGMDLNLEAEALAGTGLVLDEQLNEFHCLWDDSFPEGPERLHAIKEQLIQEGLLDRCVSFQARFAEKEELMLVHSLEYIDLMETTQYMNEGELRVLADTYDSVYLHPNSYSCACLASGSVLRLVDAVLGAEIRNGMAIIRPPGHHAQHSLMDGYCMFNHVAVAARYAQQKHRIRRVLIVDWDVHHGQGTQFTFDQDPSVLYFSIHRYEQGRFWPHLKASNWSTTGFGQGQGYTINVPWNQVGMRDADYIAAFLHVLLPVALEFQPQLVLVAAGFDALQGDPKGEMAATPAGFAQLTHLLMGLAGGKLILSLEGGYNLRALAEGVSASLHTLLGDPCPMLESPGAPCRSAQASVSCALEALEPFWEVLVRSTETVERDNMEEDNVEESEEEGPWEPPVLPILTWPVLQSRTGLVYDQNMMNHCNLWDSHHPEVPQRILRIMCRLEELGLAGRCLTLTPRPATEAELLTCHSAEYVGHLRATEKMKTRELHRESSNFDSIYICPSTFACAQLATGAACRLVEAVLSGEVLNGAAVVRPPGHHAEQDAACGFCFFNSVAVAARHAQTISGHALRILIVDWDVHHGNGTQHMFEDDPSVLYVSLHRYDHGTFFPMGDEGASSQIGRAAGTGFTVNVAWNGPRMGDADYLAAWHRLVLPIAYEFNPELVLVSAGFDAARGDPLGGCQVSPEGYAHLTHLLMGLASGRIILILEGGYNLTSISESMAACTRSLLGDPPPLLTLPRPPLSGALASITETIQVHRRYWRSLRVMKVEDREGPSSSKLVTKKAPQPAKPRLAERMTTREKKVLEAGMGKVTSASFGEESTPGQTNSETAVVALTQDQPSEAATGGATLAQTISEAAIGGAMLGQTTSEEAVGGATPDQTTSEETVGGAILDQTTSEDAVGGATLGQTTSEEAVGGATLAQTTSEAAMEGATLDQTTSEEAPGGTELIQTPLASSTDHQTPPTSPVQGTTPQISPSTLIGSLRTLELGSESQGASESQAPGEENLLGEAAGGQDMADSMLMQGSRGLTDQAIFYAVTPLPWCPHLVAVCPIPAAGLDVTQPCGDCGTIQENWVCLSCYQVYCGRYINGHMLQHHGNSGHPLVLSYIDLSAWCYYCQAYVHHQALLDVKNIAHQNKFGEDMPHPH

In the case of O=C1CCC(N2C(=O)c3cccc(NCc4cn(CCOCCOc5ccc(Cn6ccc7ccc(C(=O)NO)cc76)cc5)nn4)c3C2=O)C(=O)N1 (centres undefined), the Activity [1] is reported as “Non-Toxic”, the Activity [2] is reported as 23.5% and the Activity [3] is reported as “Active”. For the same molecule, the Activity [4] was 22.7%, the Activity [5] was “Active” and the Activity [6] was 0.3%. The Activity [7] was “Active”, the Activity [8] was “Active” and the Activity [9] was 0.57%. For the same molecule, the Activity [10] was “Active”, the Activity [11] was 6.19% and the viability at 10 µM [12] was 42.7%. For the same molecule, the Activity [13] was “Dose-Dependent Effect”, the Activity [14] was “inactive” and the Activity [15] was 39.7%. For the same molecule, the Activity [16] was 30%, the Activity [17] was “Active” and the Activity [18] was “Active”. For the same molecule, the Activity [19] was “Active”, the Activity [20] was “Active” and the inhibition [21] was “Active”. The Activity [22] was 0.1%, the Emax [23] was over 95% and the viability at 20 µM [24] was 6.84%. For the same molecule, the viability at 5 µM [25] was 66.3%, the Activity [26] was 21.6% and the Activity [27] was “Active”. The Activity [28] was 15.3%, the CI [29] was 0.65 and the inhibition [30] was “Active”. The Activity [31] was 100%, the Activity [32] was 2.49% and the Activity [33] was “Active”. For the same molecule, the Activity [34] was “Active”.
